Results as given in the NIST ThermoML archive (doi:10.1016/j.jct.2019.05.023).

Assay: xn = mol fraction of the nth substance listed
Conditions: 101.3 kPa, Liquid; for speed of sound: Frequency=3 MHz, Single path-length method; for mass density: Vibrating tube method

CCCOCCO [2-propoxyethanol] + CCn1cc[n+](C)c1.O=S(=O)([O-])C(F)(F)F
Conditions	mass density, 298.15 K [kg/m3]	mass density, 303.15 K [kg/m3]	mass density, 308.15 K [kg/m3]	mass density, 313.15 K [kg/m3]	mass density, 318.15 K [kg/m3]	speed of sound, 298.15 K [m/s]	speed of sound, 303.15 K [m/s]	speed of sound, 308.15 K [m/s]	speed of sound, 313.15 K [m/s]	speed of sound, 318.15 K [m/s]
x2 = 0	908	903	899	895	890	1301	1283	1266	1248	1231
x2 = 0.051	945	940	936	931	927	1308	1292	1275	1258	1241
x2 = 0.104	981	976	972	968	963	1317	1300	1284	1268	1252
x2 = 0.199	1042	1037	1033	1029	1024	1331	1316	1301	1286	1271
x2 = 0.241	1067	1063	1059	1054	1050	1338	1323	1308	1294	1279
x2 = 0.296	1098	1094	1089	1085	1081	1346	1332	1318	1304	1289
x2 = 0.416	1161	1157	1153	1149	1145	1364	1351	1338	1324	1311
x2 = 0.506	1204	1200	1196	1192	1187	1377	1364	1352	1339	1327
x2 = 0.606	1247	1243	1239	1235	1231	1391	1379	1367	1355	1343
x2 = 0.698	1284	1280	1276	1272	1268	1404	1392	1381	1369	1357
x2 = 0.808	1324	1320	1316	1311	1307	1419	1408	1396	1385	1374
x2 = 0.845	1336	1332	1328	1324	1320	1424	1413	1402	1390	1379
x2 = 0.898	1353	1349	1344	1340	1336	1431	1420	1409	1398	1386
x2 = 0.953	1369	1365	1361	1357	1353	1438	1427	1416	1405	1394

CCOCCO [2-ethoxyethan-1-ol] + CCn1cc[n+](C)c1.O=S(=O)([O-])C(F)(F)F
Conditions	mass density, 298.15 K [kg/m3]	mass density, 303.15 K [kg/m3]	mass density, 308.15 K [kg/m3]	mass density, 313.15 K [kg/m3]	mass density, 318.15 K [kg/m3]	speed of sound, 298.15 K [m/s]	speed of sound, 303.15 K [m/s]	speed of sound, 308.15 K [m/s]	speed of sound, 313.15 K [m/s]	speed of sound, 318.15 K [m/s]
x2 = 0	926	921	917	912	907	1304	1287	1270	1252	1234
x2 = 0.067	981	976	971	967	962	1321	1305	1289	1272	1256
x2 = 0.133	1029	1024	1020	1015	1011	1333	1318	1302	1286	1271
x2 = 0.192	1066	1062	1058	1053	1049	1344	1329	1314	1299	1283
x2 = 0.268	1112	1107	1103	1099	1094	1356	1342	1328	1313	1299
x2 = 0.35	1157	1152	1148	1144	1139	1369	1355	1342	1328	1315
x2 = 0.428	1196	1191	1187	1183	1178	1380	1367	1354	1341	1328
x2 = 0.54	1245	1241	1237	1233	1228	1395	1383	1370	1358	1346
x2 = 0.609	1272	1268	1264	1260	1255	1403	1391	1379	1368	1356
x2 = 0.674	1295	1291	1287	1283	1278	1411	1399	1387	1376	1364
x2 = 0.734	1314	1310	1306	1302	1297	1417	1406	1394	1383	1372
x2 = 0.799	1332	1328	1324	1320	1315	1424	1412	1401	1390	1379
x2 = 0.884	1354	1350	1346	1342	1337	1431	1420	1409	1398	1387
x2 = 0.951	1371	1367	1363	1359	1354	1437	1425	1414	1403	1392
